Series [1] in a line: Stability testing of liver microsomes, mouse. It is filed as in vitro ADME. As to conditions: for CLint scaled at 1 µM / half-life at 1 µM: pH 7.41, mouse liver microsomes. As to the method:
(§1) 1. 100 mM K-buffer was preheated with 5 mM MgCl2 with a pH value of 7.41.
(§2) 2. Preparation of testing solution
(§3) 0.5 mM solution A: 5 μL of the 10 mM compound stock solution was added for reference to 95 μL of ACN.
(§4) 1.5 μM microsome solution (0.75 mg/mL): 1.5 μL of a 500 μM solution and 18.75 μL of 20 mg/mL liver microsomes were added to 479.75 μL of K/Mg-buffer.
(§5) 3. The K/Mg-buffer NADPH solution (6 mM, 5 mg/mL) was prepared.
(§6) 4. […] of human, monkey, and mouse liver microsomes with a 0.75 mg/mL concentration were added to detection plates at different time points (0, 15, 30, 45, and 60 minutes).
(§7) 5. Pre-incubation was conducted at 37° C. for 5 minutes.
(§8) 6. At 0 min, before 15 μL of the NADPH stock solution (6 mM) was added, 150 μL of ACN containing IS was added.
(§9) NADPH was dissolved in the K/mg buffer to prepare a 6 mm and 5 mg/mL NADPH stock solution.
(§10) 7. At other time points, 15 μL of the NADPH stock solution (6 mM) was added to the well for starting the reaction and timing.
(§11) 8. 150 μL of ACN containing IS was added to the corresponding plate wells at 15 min, 30 min, 45 min, and 60 min, respectively, and the reaction was stopped.
(§12) 9. After quenching, shaking well was conducted for 10 minutes (600 rpm), and centrifugation was conducted at 6000 rpm for 15 minutes.
(§13) 10. 80 μL of the supernatant in each well was transferred to a 96-well sample plate (containing 140 μL of pure water) for LC/MS analysis.
A general note: Liver microsomes are vesicles of endoplasmic reticulum, rich in cytochrome P450 enzymes.

A short description of series [2]: Stability testing of liver microsomes, monkey. It is filed as in vitro ADME. The conditions noted are these: for CLint scaled at 1 µM / half-life at 1 µM: pH 7.41, monkey liver microsomes. As to the method: as §1, §2, §3, §4, §5, §6, §7, §8, §9, §10, §11, §12, §13
In series [3] the test system is BaF3-EGFR^del19/T790M/C797S cells. Briefly: BaF3 cell proliferation inhibition experiment (CCK-8). The format is cell-based. As to conditions: Ba/F3 EGFR-Del19/T790M/C797S, read-out: BaF3-EGFR^del19 /T790M/C797S (IC50 nM). Here is the method: (§14) A. Cell line: BaF3 cells with stable overexpression of wild-type genes are named BaF3-EGFR^WT, and BaF3 cells with stable overexpression of EGFR^L858R/T790M/C797S EGFR^del19/T790M/C797S EGFR^L858R/C797S and EGFR^del19/C797S mutant genes are named BaF3-EGFR^L858R/T790M/C797S BaF3-EGFR^del19/T790M/C797S BaF3-EGFR^L858R/C797S and BaF3-EGFR^del19/C797S cells, respectively. Mediums:
(§15) a) The medium was preheated in a 37° C. water bath.
(§16) b) The cryopreservation tube was taken from the liquid nitrogen tank, quickly placed in a 37° C. water bath, and melted completely within 1 minute.
(§17) c) The cell suspension was transferred to a 15 mL centrifuge tube containing a 10 mL medium and centrifuged at 1000 rpm for 4 minutes.
(§18) d) The supernatant was discarded, the cells were resuspended in a 1 mL medium and transferred to a […] culture dish containing a 10 mL medium, 20% serum and 50 ng/mL EGF were administered to the first-generation medium, and culture was conducted in a 37° C. and 5% CO2 incubator.
(§19) b) The cells in the culture dish were blown evenly with a 5 mL pipette, and 500 μL of the cells were pipetted out to be inoculated into a new […] culture dish and cultured in a 37° C. and 5% CO2 incubator.
(§20) a) The compound to be tested (10 mM stock solution) was diluted with 100% DMSO to 1 mM, and diluted with a culture solution in a 24-well plate to prepare of a working solution of 2 μM concentration.
(§21) b) The 2 μM working solution was diluted with a triple dilution method to obtain working solutions with approximate concentrations of 2 μM, 600 nM, 200 nM, 60 nM, and 20 nM.
(§22) a) The cells at the logarithmic growth phase were centrifuged at 1000 rpm for 4 minutes, resuspended with a medium (containing 10% serum and 50 ng/mL EGF), and counted.
(§23) b) The cells were inoculated into a 96-well plate with a cell density of 4000 cells/well, and placed in a 37° C. and 5% CO2 incubator for culture for 12 hours.
(§24) a) The prepared compound was added to a 96-well plate, with 100 μL per well. The final concentrations were 1 μM, 300 nM, 100 nM, 30 nM, 10 nM, and 0 nM, and the final concentration of DMSO was 0.2%. A medium served as a blank control.
(§25) b) The cells were placed in 37° C. and 5% CO2 incubator for culture for 72 hours.
(§26) (5) Cell Viability Testing
(§27) a) The 96-well cell culture plate was taken out, and 20 μL of a CCK-8 reagent (Cell Counting Kit-8, Topscience, Catalog No. C0005) was added in the dark.
(§28) b) Mixing well was conducted on a horizontal shaking table at a room temperature at 100 rpm for 5 minutes.
(§29) c) The culture plate was placed in a 37° C. constant-temperature incubator for incubation.
(§30) The data was analyzed using GraphPad Prism 8.0 software to obtain a fitted curve of activity of the compounds. The IC50 of the compounds was fitted from nonlinear regression equation.

Another series relates to BaF3-EGFR^WT cells. Described as above. The format is cell-based. As to conditions: Mus musculus, read-out: BaF3-EGFR^WT (IC50 nM). As to the method:
as §14, §15, §16, §17, §18, §19, §20, §21, §22, §23, §24, §25, §26, §27, §28, §29, §30

Series [4] can be described thus: Stability testing of liver microsomes, human. The format is in vitro ADME. The conditions noted are these: for CLint scaled at 1 µM / half-life at 1 µM: pH 7.41, human liver microsomes. Here is the method:
as §1, §2, §3, §4, §5, §6, §7, §8, §9, §10, §11, §12, §13

Series [5] concerns Ba/F3-EGFR^L858R/T790M/C797S nude mouse transplantation tumors. Briefly: In-vivo efficacy in Ba/F3-EGFR^L858R/T790M/C797S xenograft (CDX). Also on record: species or system BALB/c nude mice. As to conditions: 13 days. Here is the method: In-vivo efficacy: The compounds of the present invention have excellent in-vivo anti-tumor efficacy and are dose-dependent
In-vivo efficacy experiments were conducted on BALB/c nude mice subcutaneously implanted with Ba/F3-EGFR^L858R/T790M/C797S derived xenograft (CDX). BALB/c nude mice, female, 6-8 weeks old, weighing approximately 18-22 grams, were raised in an SPF-level environment with separate ventilation for each cage (5 mice per cage). All cages, beddings, and water were disinfected before use. All the animals were free to access standard certified commercial laboratory diets. A total of 48 mice were purchased from Beijing Vital River for research. Each mouse was subcutaneously implanted with […] in the right axilla for tumor growth. The experiment began when the average tumor volume reached about 70 cubic millimeters. The experimental compounds were for oral administration daily, with compound 24 (45 mg/kg, 75 mg/kg respectively) and compound 51 (100 mg/kg) administered continuously for 13 days.

Like-named read-outs stand apart in the source and are kept apart here. Bounds are passed on as bounds.

Consider `CCc1cc(Nc2ncc(Cl)c(Nc3ccc(C)c(C)c3P(C)(C)=O)n2)c(OC)cc1N1CCC(N2CCN(C)CC2)CC1` [Comparative Compound A, reference compound], for which the CLint scaled at 1 µM in series [1] was found to be 18.2 mL/min/kg; in series [2], 52 mL/min/kg; in series [4] it was 49.8 mL/min/kg. Further, the results for the half-life at 1 µM in series [1], in series [2] and in series [4] were 76.1 min, 26.7 min and 27.8 min, respectively. In addition, the IC50 in series [3] (cell proliferation, 72 hours) was 66.3 nM; in the series on BaF3-EGFR^WT cells (BaF3, cell proliferation, 72 hours) it was 1570 nM.
Turning to `CCc1cc(Nc2ncc(Cl)c(Nc3ccc(C)c(C)c3P(C)(C)=O)n2)c(OC)cc1N1CC2(CCN(C)CC2)C1` [Compound 24, (6-((5-Chloro-2-((5-ethyl-2-methoxy-4-(7-methyl-2,7-diazaspiro[3.5]non-2-yl)phenyl)amino)pyrimidin-4-yl)amino)-2,3-dimethylphenyl)dimethylphosphine oxide], the TGI % in series [5] (45 mg/kg/day oral) was determined as 84.74%; in series [5] (75 mg/kg/day oral), 99.06%. In addition, the “stability in liver microsomes (in words)” value in series [1] (mice), in series [2] (monkeys) and in series [4] (humans) was “good stability” each time. The CLint scaled at 1 µM in series [1] is under 9.6 mL/min/kg; in series [2], 27.7 mL/min/kg; in series [4], under 9.6 mL/min/kg. Besides, the values for the half-life at 1 µM in series [1], in series [2] and in series [4] were over 145 min, 50 min and over 145 min, respectively. Besides, the IC50 in series [3] (72 h) is 128 nM; in the series on BaF3-EGFR^WT cells (BaF3, 72 h), 5770 nM.
`CCc1cc(Nc2ncc(Cl)c(Nc3ccc(C)c(C)c3P(C)(C)=O)n2)c(OC)cc1N1CCC(N2C[C@H]3CC[C@@H](C2)N3C)CC1` [Compound 51, (6-((5-chloro-2-((5-ethyl-2-methoxy-4-(4-((1R,5S)-8-methyl-3,8-diazabicyclo[3.2.1]octan-3-yl)piperidin-1-yl)phenyl)amino)pyrimidin-4-yl)amino)-2,3-dimethylphenyl)dimethylphosphine oxide]: in series [5] (100 mg/kg/day oral), the TGI % is recorded as 83.07%. Moreover, the IC50 in series [3] (72 h) stood at 29.9 nM; with BaF3-EGFR^WT cells (BaF3, 72 h) it was 1180 nM.

As a reminder, the CLint scaled is the rate of metabolic loss divided by the concentration. As a reminder, the half-life is the time in which the quantity being followed falls by half.

Source of the values: patent publication US20250101052A1, “COMPOUND FOR EGFR KINASE INHIBITOR, COMPOSITION, AND USE THEREOF” (INNOVATION INSTITUTE FOR ARTIFICIAL INTELLIGENCE IN …, priority 2021, published 2025).
